“Also recorded” adds a separate entry of the source. One block for each molecule: values may come before it. Ends that are not written are not given here. * marks the point of attachment. DTPA = O=C(O)CN(CCN(CC(=O)O)CC(=O)O)CCN(CC(=O)O)CC(=O)*
Assays:
breast tumors = experiment: tumor uptake in tumor-bearing mice; settings: 24 hr post-injection
Procedure: (§1) Approximately 5×10^6 viable cells from either tumor cell line are implanted in the right thigh of each mouse, and tumors are allowed to form. […] Animals are sacrificed at 15 min, 1 hr, 2 hr, 4 hr and 24 hr post-injection, and % of ID/g tissue is determined in all tissues. A control group of tumor-bearing mice is injected with PACAP27 mono-iodinated with ^125I. […] All animals are imaged using a GE STARCAM gamma camera equipped with a dedicated computer and a low energy parallel hole collimator.
(§2) The co-injected ^99mTc-TP 3475 and ^111In-DTPA-D-Phe^1-Octreotide in the mouse tissues were counted by using the characteristic energy windows for their respective radionuclides (±15 or 20%); e.g., 140 KeV for ^99mTc, and 173 KeV and 247 KeV for ^111In. The ^111In counts in the tissues were again determined when ^99mTc was completely decayed (e.g., 10-12 half-lives).

in vivo = settings: nude, mouse, iv, total radioactivity
Procedure: as §1, §2

T47D xenografts = experiment: receptor blocking study with PACAP in tumor-bearing mice; format: in vivo; settings: PACAP pre-injected; nude mice with T47D xenografts
Procedure: In order to determine receptor specificity of […] in human breast tumors, receptor blocking studies with PACAP were performed. In nude mice with T47D xenografts, ^99mTc-TP 3475 tumor uptake was reduced by approximately 50% when PACAP was pre-injected.

[1] = format: physicochemical
Procedure: For the metallization reaction, the vial contents were allowed to come to ambient temperature, and 10-40 mCi ^99mTc in 200 μl 0.9% NaCl was injected into the vial. The mixture was incubated at 100° C. for 30 min, and the pH of the reaction mixture was raised to 6-6.5 by addition of 1 ml 0.1 M Na2HPO4. One-hundred twenty-five mg of Na-ascorbate was added as a stabilizing agent. […] The yields at 22° C. are quantitative as determined by HPLC, producing a single peak at Rt. 12.5 min.

[2] = design: species or system Sprague-Dawley rats; settings: rat, in vivo, iv
Procedure: The blood clearance of ^99mTc-TP 3475 was studied in Sprague-Dawley rats as follows. Three Sprague Dawley rats, each weighing approximately 250 grams, were injected through one lateral tail vein with one mCi of ^99mTc-TP 3475, and serial blood samples were drawn in triplicate through the other lateral tail vein at 1, 5, 10, 15, and 30 minutes post-injection, and at 1, 2, 4, 6, 18 and 24 hours post injection. The blood samples were weighed, and radioactivity was counted against a standard ^99mTc solution prepared at the time of injection using standard scintillation counting techniques. The % ID/g plotted as a function of time.

primary breast cancers = settings: cited from earlier work
adenylate cyclase = settings: pituitary cells; cited from earlier work
[3] = system: PACAP, VIP-R1 and VIP-R2 receptors; settings: cited from earlier work
normal lung membrane = settings: cited from earlier work
[4] = system: internal anal sphincter (IAS) smooth muscle; experiment: basal tension of opossum internal anal sphincter (IAS) smooth muscle; design: species or system opossum (Didelphis virginiana); settings: 10^−5 M concentration
Procedure: PACAP27 is known to cause a concentration-dependent fall in the basal tension of IAS, by the assay described in Rattan S et al., J. Pharmcol. Exper. Thera. 263: 722-728, 1997, the entire disclosure of which is herein incorporated by reference. This IAS assay was performed with increasing concentrations of TP 3475 until a maximum fall is reached, essentially as described below. PACAP27 was used as a control.
[…]. The large blood vessels and extraneous tissues including the external […] were removed, and the anal canal was opened and pinned flat with the mucosal side up on a dissecting tray containing oxygenated Krebs' solution (NaCl, 118.07; KCl, 4.69; CaCl2, 2.52; MgS04, 1.16; NaH2PO4, 1.01; NaHC03, 25; and glucose, 11.10). The mucosa was removed, and internal anal sphincter circular smooth muscle strips (approximately 2 mm×1 cm) were prepared from the lowermost part of the anal canal.
Measurement of isometric tension—The IAS smooth muscle strips were transferred to temperature-controlled 2 ml “muscle baths” containing Krebs' solution, bubbled continuously with a mixture of 95% O2-5% CO2. […] Isometric tensions were recorded on a Beckman Dynograph recorder (Beckman Instruments, Schiller Park, Ill.). […] Both optimal length and base-line were determined as described in Rattan S et al., 1997, supra.

[5] = reduced from 100 for PACAP27; cited from earlier work

tumor uptake (breast tumors): 0.18±0.0 % ID/g
Molecule: [C-]#[N+]CC(C)(C)OC.[C-]#[N+]CC(C)(C)OC.[C-]#[N+]CC(C)(C)OC.[C-]#[N+]CC(C)(C)OC.[C-]#[N+]CC(C)(C)OC.[C-]#[N+]CC(C)(C)OC.[Tc] [^99mTc-Sesta-MIBI]

Molecule: CC[C@H](C)[C@H](NC(=O)CNC(=O)[C@H](CC(=O)O)NC(=O)[C@H](CO)NC(=O)[C@@H](N)Cc1c[nH]cn1)C(=O)N[C@@H](Cc1ccccc1)C(=O)N[C@H](C(=O)N[C@@H](CC(=O)O)C(=O)N[C@@H](CO)C(=O)N[C@@H](Cc1ccc(O)cc1)C(=O)N[C@@H](CO)C(=O)N[C@@H](CCCNC(=N)N)C(=O)N[C@@H](Cc1ccc(O)cc1)C(=O)N[C@@H](CCCNC(=N)N)C(=O)N[C@@H](CCCCN)C(=O)N[C@@H](CCC(N)=O)C(=O)N[C@@H](CCSC)C(=O)N[C@@H](C)C(=O)N[C@H](C(=O)N[C@@H](CCCCN)C(=O)N[C@@H](CCCCN)C(=O)N[C@@H](Cc1ccc(O)cc1)C(=O)N[C@@H](CC(C)C)C(=O)N[C@@H](C)C(=O)N[C@@H](C)C(=O)N[C@H](C(=O)N[C@@H](CC(C)C)C(=O)NCCCC(=O)NCC(=O)N[C@H](C)C(=O)NCC(=O)NCC(=O)O)C(C)C)C(C)C)[C@@H](C)O [^99mTc-TP 3475, metal not drawn]
tissue uptake at 24 h (in vivo): ~0.2 %ID/g | reduction of tumor uptake (T47D xenografts): approximately 50% | stability [1]: stable for 24 hr | blood clearance α-t½ ([2]; Sprague-Dawley): approximately 6 min | blood clearance β-t½ ([2]; Sprague-Dawley): approximately 90 min | time in which 75% of the radioactivity is cleared from the circulation [2]: about 12 minutes

Molecule: C[C@@H](O)[C@@H]1NC(=O)[C@H](CCCCN)NC(=O)[C@@H](Cc2c[nH]c3ccccc23)NC(=O)[C@H](Cc2ccccc2)NC(=O)[C@@H](NC(=O)[C@@H](Cc2ccccc2)NC(=O)CN(CCN(CCN(CC(=O)O)CC(=O)O)CC(=O)O)CC(=O)O)CSSC[C@@H](C(=O)N[C@H](CO)[C@@H](C)O)NC1=O [^111In-DTPA-D-Phe^1-Octreotide, metal not drawn]
tissue uptake at 24 h (in vivo): 0.09 ± 0.01 %ID/g | positive scintigraphy (primary breast cancers; 52 primary breast cancers): 75% | patients in whom imaging of axillae detected non-palpable, cancer-containing lymph nodes (primary breast cancers; patients with histologically-proven metastases): 4 of 13

Molecule: HSDGIFTDSYSRYRKQMAVKKYLAAVL [PACAP27]
potency in stimulating adenylate cyclase relative to VIP28 (adenylate cyclase): ten times more potent | receptor binding affinity [3]: binds with high affinity to PACAP, VIP-R1 and VIP-R2 receptors | IC50 (normal lung membrane): ~1.5 nM | % fall in IAS tension [4]: equivalent fall in IAS tension; also recorded: equal

Molecule: PACAP27 linked to DTPA at its N-terminus: PACAP27 linked to DTPA at its N-terminus (Reubi et al. 1997) ({DTPA}-HSDGIFTDSYSRYRKQMAVKKYLAAVL; ends and bridges not checked; UniProt P18509 132-158, looked up)
biological activity [5]: < 0.01

Molecule: TP 3475: PACAP27 linked via a C-terminal Aba spacer to a Gly-(D)Ala-Gly-Gly chelating agent; SEQ ID NO: 5 (HSDGIFTDSYSRYRKQMAVKKYLAAVLXGAGG; C-terminal Aba spacer, Gly-(D)Ala-Gly-Gly chelator; PACAP analog TP 3475)
% fall in IAS tension [4]: equivalent fall in IAS tension; also recorded: equal

Molecule: VIP28: 28-amino acid vasoactive intestinal peptide
receptor binding affinity [3]: binds with high affinity only to VIP-R1 and VIP-R2 receptors | IC50 (normal lung membrane): ~15 nM

Reference: patent US6855308B2, “PACAP compositions and methods for tumor imaging and therapy” (Thomas Jefferson University, priority 2001, dated 2005)
